# Reference: US12403184B2, “Compositions and methods for treating neurodegenerative disroders” (priority 2018, dated 2025)
# Where no end group is shown, it is not given here.
# Tests used:
# [1] = 1 mg/kg/day, administered subcutaneously
# [2] = tested on: neurons derived from HD patient-iPS cells; assay: Mitochondrial and neuronal morphology in neurons derived from iPS cells; assay type: cell-based, human
# Method: iPS cells from a normal subject and a HD patient (carrying 41 CAG repeats) were differentiated into neurons using the protocol from our previous studies. Briefly, the iPS cells were plated onto 6-well plates precoated with 2.5% Matrigel and allowed to reach 90% confluence in feeder-free medium. For the first 10 days, the cells were treated with SB431542 (10 μM; Tocris Bioscience) and Noggin (100 ng/ml) in Neural Media (NM) containing Neurobasal and DMEM (1:1), B-27 supplement minus vitamin A (50×, Invitrogen), N2 supplement (100×, Invitrogen), GlutaMax (Invitrogen, 100×), FGF2 ([…]) and EGF ([…]), and 100 units/ml penicillin and 100 μg/ml streptomycin). For the next 10 days, the cells were treated with human recombinant Sonic hedgehog (SHH, 200 ng/ml), DKK1 (100 ng/ml) and BDNF (20 ng/ml), and 10 μM Y27632 (Sigma) in neuronal differentiation medium containing Neurobasal and DMEM (1:3), B27, N2, GlutaMax, and PS. Cells were then switched to treatment with BDNF (20 ng/ml), ascorbic acid (200 μM, Sigma-Aldrich), cAMP (0.5 mM, Sigma-Aldrich), and Y27632 (10 μM) in neuronal differentiation medium. All growth factors were purchased from PeproTech (Rocky Hill, NJ, USA). Twenty days after the initiation of differentiation, the neurons (about 5000 cells) were plated onto 12-mm poly-Dlysine/laminine-coated coverslips and grown in 24-well plates in neuronal differentiation medium.
# Neurons derived from iPS cells were stained with anti-Tom20 (a mitochondrial marker) and anti-GAD67 (a striatal neuronal marker). Quantitation of mitochondrial length along the neurites was conducted only in the neurons immuno-positive for GAD67. To analyze dendrite and axon outgrowth of neurons, cells were stained with anti-MAP2 (a dendritic marker) and anti-GAD67 or anti-Tau (an axonal marker) and anti-DARPP32 (a medium spiny neuron marker). The length of MAP2+ dendrite and Tau+ axon in the neurons immuno-positive for GAD67 or DARPP32 was quantitated, respectively. At least 50 neurons/group were counted.
# Drp1/ATAD3A = target: T1, Drp1/ATAD3A (Mus musculus, UniProt Q925I1); assay: Immunoprecipitation of Drp1/ATAD3A binding in mouse striatal cells; assay type: cell-based
# T1 construct: The total lysates of cells or mouse striatum were subject to IP analysis; endogenous in cells; host or cells: HdhQ7 / HdhQ111 mouse striatal cells; wild-type mouse striatal cells exposed to 3-NP
# T1 sequence (Q925I1 2-591 limits assumed): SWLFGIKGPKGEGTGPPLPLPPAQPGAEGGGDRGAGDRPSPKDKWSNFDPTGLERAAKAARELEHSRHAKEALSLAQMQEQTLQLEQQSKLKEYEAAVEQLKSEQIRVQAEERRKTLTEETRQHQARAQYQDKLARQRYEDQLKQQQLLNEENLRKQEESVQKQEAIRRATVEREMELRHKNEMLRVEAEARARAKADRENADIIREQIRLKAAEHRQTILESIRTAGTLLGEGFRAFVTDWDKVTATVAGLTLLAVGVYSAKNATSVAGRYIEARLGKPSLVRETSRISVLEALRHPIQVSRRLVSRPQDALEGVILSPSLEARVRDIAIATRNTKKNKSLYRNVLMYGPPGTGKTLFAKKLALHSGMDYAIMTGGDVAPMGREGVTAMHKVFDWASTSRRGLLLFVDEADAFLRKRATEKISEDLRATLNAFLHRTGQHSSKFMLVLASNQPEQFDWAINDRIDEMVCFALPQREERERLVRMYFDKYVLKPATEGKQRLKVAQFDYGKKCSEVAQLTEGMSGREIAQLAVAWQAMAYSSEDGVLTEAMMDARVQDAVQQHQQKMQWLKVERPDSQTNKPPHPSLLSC
# Method: Cells and mouse brain tissues were harvested and lysed in total lysis buffer ([…], pH 7.9, […], […], 1% Triton X-100, and protease inhibitor cocktail) for 30 mins on ice and centrifuged at 12,000×g for 10 min at 4° C. The supernatants were incubated with the indicated primary antibodies or control IgG (sc-2025 and sc-2027, Santa Cruz Biotechnology) overnight at 4° C., followed by incubation with protein A/G beads (sc-2003, Santa Cruz Biotechnology) for 2 h at 4° C. The immunoprecipitates were washed with lysis buffer three times for a total of 30 min and then subject to WB analysis.
# HD R6/2 mice = assay: Body weight, survival and behavior in HD R6/2 mice; assay type: in vivo, mouse
# Method: Male R6/2 mice and their wild-type (WT) littermates (5 weeks old) were purchased from Jackson Laboratories [Bar Harbor, ME; B6CBA-TgN (HD exon1) 62; JAX stock number: 006494]. These mice (C57BL/6 and CBA genetic background) are transgenic for the 5′ end of the human HD gene carrying 100-150 glutamine (CAG) repeats.
# Systemic peptide treatment in HD mice. All randomization and peptide treatments were prepared by an experimenter not associated with behavioral and neuropathology analysis. Male R6/2 mice (Tg) and their age-matched wild-type littermates (Wt) (6-week-old) were implanted with a 28-day osmotic pump (Alzet, Cupertino CA, Model 2004) containing TAT control peptide or DA1 peptide, which delivered peptides at a rate of 1 mg/kg/day. Male YAC128 mice (Tg) and their age-matched wild-type littermates (WT) were treated with TAT control peptide or DA1 peptide (1 mg/kg/day) by Alzet osmotic pump starting from the age of 3 months. The pump was replaced once every month.
# Gross locomotor activity was assessed in R6/2 mice and age-matched wild-type littermates at the ages of 12 weeks, and in YAC128 mice and age-matched wildtype littermates at the ages of 2, 3, 6, 9, and 12 months. The mice were placed in the center of an activity chamber (Omnitech Electronics, Inc) and allowed to explore while being tracked by an automated beam system (Vertax, Omnitech Electronics Inc). Distance moved, horizontal and vertical activities were recorded. In R6/2 mice and wildtype littermates, one-hour locomotor activity was conducted. In YAC128 mice and wildtype littermates, 24 h of locomotor activity analysis was performed.
# Hindlimb clasping was assessed with the tail suspension test once a week from the ages 8 to 12 weeks in R6/2 mice. The mice were suspended by the tail for 60 s, and the latency for the hindlimbs or all four paws to clasp was recorded using the score system: Clasping over 10 s, score 3; 5-10 s, score 2; 0-5 s, score 1; and 0 s, score 0.
# The body weight and survival rate of HD mice and wild-type littermates were recorded throughout the study period.
# [3] = striatal neurons derived from HD patient iPS cells
# [4] = R6/2 mice at the age of 12 weeks
substance,measurement,setting,value
"YGRKKRRQRRRGGEDKRKT-NH2 [DA1, YGRKKRRQRRR-GG-EDKRKT-NH2]",brain entry,[1],entered the brain
same,mitochondrial morphology,[2]; cells derived from iPS cells of normal subject,no observed effects
same,length of mitochondria along the neurites of GAD67+-neurons,[2]; neurons derived from HD patient-iPS cells,increased
same,MAP2+ dendritic outgrowth,[2]; [3],improved
same,Tau+ axonal outgrowth,[2]; [3],improved
same,binding of Drp1/ATAD3A,"Drp1/ATAD3A; HdhQ111 cells, peptide 1 μM/day for 4 days, vs TAT",significantly reduced
same,binding of Drp1/ATAD3A,"Drp1/ATAD3A; wildtype mouse striatal cells exposed to 3-NP (5 mM for 4 hours), DA1 1 μM overnight",significantly reduced
same,body weight loss,"HD R6/2 mice; HD R6/2 mice, 1 mg/kg/day from 6 weeks, vs TAT",moderately suppressed
same,survival,"HD R6/2 mice; HD R6/2 mice, age 6 to 21 weeks, 1 mg/kg/day",greatly prolonged
same,horizontal activity,HD R6/2 mice; [4],increased
same,total traveled distance,HD R6/2 mice; [4],increased
same,severity of clasping behavior,"HD R6/2 mice; R6/2 mice, four-week observation period",reduced
